Patent US20230044661A1, “VIABLE TISSSUE FORMS AND METHODS FOR MAKING AND USING SAME” (Musculoskeletal Transplant Foundation, priority 2019, published 2023)

What was measured:
[1] = system: mismatched peripheral blood mononuclear cells (PBMCs); assay: Two-way mixed lymphocyte reaction (MLR); format: cell-based, human; conditions: for Stimulation Index: vs same MLR + saline
Description: (§1) Cancellous and cortical bone tissue samples were obtained, processed and combined, to produce LyoGraft Bone Grafts. From each donor, cancellous tissue samples comprising cancellous bone were recovered and processed to provide cancellous granules, and cortical bone tissue samples were recovered and processed to provide cortical fibers. Quantities of cancellous granules and cortical fibers derived from the same donor were measured and combined to produce three test samples per donor, each of which contained about 40 wt % cancellous granules and about 60 wt % cortical fibers, the wt % being based on the total weight of the combined cancellous granules and cortical fibers of each sample. The total weights of the test samples (i.e., each comprising both cancellous granules and cortical fibers) ranged from 1.3 g to 1.6 g. The test samples were preserved after contact with protectants in solution, in accordance with the methods described hereinabove. Peripheral blood mononuclear cells (PBMCs) were procured from three unique blood donors in order to test for a one-way and two-war mixed lymphocyte reaction (MLR) assay. In a one-way set up, PBMCs are exposed to a test article, the lyopreserved tissue samples, and PBMC stimulation or lack thereof is assessed. In a two-way set up, mismatched blood donors are exposed to one another, and an ongoing reaction is stimulated. This ongoing reaction is then put in presence of a test article, the lyopreserved tissue samples, and stimulation or inhibition of this ongoing reaction are assessed. […] Two-way MLR testing was performed on three lyopreserved donor lots to assess the inhibitory or stimulatory effects of an ongoing/developing immunogenic reaction between two mismatched blood donors.
• 19. Cells (PBMC) from each of two donors were added to wells of 96-well round bottom culture plates. • 20. Only cells from one of the two donors were stained with tracking dye, CPD-670, considered the responder cells. The other donor cells were left unstained, considered the inducer cells. • 21. Assay was repeated using 3 different combinations of responder/inducer cells. • 22. The amount of proliferating responder cells indicates an immune reaction induced by the mismatched inducer cells and is shown as cells with reduced dye content after six days of co-incubation. • 23. Virtuos samples are prepared by adding 30 mL of sterile saline USP to smaller units (Donor 1 and 3) or filling 2 oz jar to the top (60 mL) with saline for larger units (Donor 2), incubating for 2 mins, decanting, and tap-drying with sterile gauze. • 24. 60 mg of lyopreserved tissue per donor and 20 uL of saline were added in triplicate for each PBMC donor in 96 well plates. • 24.1 Saline is used as a negative control. • 25. PBMCs from two mismatched blood donors were added to each test group (250K cells per blood donor) and incubated for 5 days at 37° C. in 5% CO2 in humidifier incubator. • 26. Concanavalin A (ConA) was used as a stimulation positive control to ensure that cells (PBMC) were in good condition to proliferate. • 27. Stimulation Index (SI) was calculated as proliferating cell percentage from wells with two mismatched donors with lyopreserved tissue divided by proliferating cell percentage from wells with the same mismatched donor cells treated with saline.

[2] = system: peripheral blood mononuclear cells (PBMCs); assay: One-way mixed lymphocyte reaction (MLR); format: cell-based, human; conditions: for Proliferated cells (% of all CPD stained), Average: 60 mg tissue, 250K cells, 5 days; for Stimulation Index: vs PBMCs + saline
Description: as §1
• 11. Blood was obtained from three unique donors and PBMCs were isolated. • 12. PBMCs were stained with a tracking dye, CPD-670, and added to 96-well round bottom culture plates for one-way MLR assay. • 12.1 This dye is used to determine whether or not an immune response has been induced. If there is an immune reaction, cells will proliferate in response to a stimulator, in this case lyopreserved tissue, and dilute the CPD-670 stain. The dilution of the stain decreases the fluorescence signal which will be used to measure any differences across test samples compared to the saline negative control and concanavalin A positive control. • 13. Lyopreserved samples are prepared by adding 30 mL of sterile saline USP to smaller units (Donor 1 and 3) or filling 2 oz jar to the top (60 mL) with saline for larger units (Donor 2), incubating for 2 mins, decanting, and tap-drying with sterile gauze. • 14. 60 mg of lyopreserved tissue per donor and 20 uL of saline were added in tripliciate for each PBMC donor in 96 well plates. • 14.1 Saline is used as a negative control. • 15. PBMCs were added to each test group (250K cells) and incubated for 5 days at 37° C. in 5% CO2 in humidifier incubator. • 16. To calculate % proliferation, cells with decreased dye fluorescent signal were compared to the total number of positively stained cells. • 17. Concanavalin A (ConA) was used as a stimulation positive control to ensure that cells (PBMC) were in good condition to proliferate. • 18. Stimulation Index (SI) was calculated as proliferating cell percentage from wells with PBMCs+lyopreserved tissue sample divided by proliferating cell percentage from PBMCs+saline.

[3] = Donor A-CPD + Donor B-Unstained MLR
[4] = Donor B-CPD + Donor C-Unstained MLR
[5] = Donor C-CPD + Donor A-Unstained MLR

## Concanavalin A [ConA]
[1]; [3]
  Proliferated cells (% of all CPD stained), Average: 57.8%
  Stimulation Index: 8.1
[1]; [4]
  Proliferated cells (% of all CPD stained), Average: 39.5%
  Stimulation Index: 5.3
[1]; [5]
  Proliferated cells (% of all CPD stained), Average: 50.6%
  Stimulation Index: 4.9
[2]; PBMC Donor A
  Proliferated cells (% of all CPD stained), Average: 45.2%
  Stimulation Index: 28.0
[2]; PBMC Donor B
  Proliferated cells (% of all CPD stained), Average: 61.5%
  Stimulation Index: 100.3
[2]; PBMC Donor C
  Proliferated cells (% of all CPD stained), Average: 60.6%
  Stimulation Index: 155.4
